Drawing on ChEMBL document CHEMBL3864159, “Variation of the aryl substituent on the piperazine ring within the 4-(piperazin-1-yl)-2,6-di(pyrrolidin-1-yl)pyrimidine scaffold unveils potent, non-competitive inhibitors of the inflammatory caspases” (Bioorg Med Chem Lett, 2016), this text covers Ki and IC50 for 14 compounds.

The first test has as its target T1, Caspase-1 (Homo sapiens, UniProt P29466).
T1 sequence (P29466 whole entry): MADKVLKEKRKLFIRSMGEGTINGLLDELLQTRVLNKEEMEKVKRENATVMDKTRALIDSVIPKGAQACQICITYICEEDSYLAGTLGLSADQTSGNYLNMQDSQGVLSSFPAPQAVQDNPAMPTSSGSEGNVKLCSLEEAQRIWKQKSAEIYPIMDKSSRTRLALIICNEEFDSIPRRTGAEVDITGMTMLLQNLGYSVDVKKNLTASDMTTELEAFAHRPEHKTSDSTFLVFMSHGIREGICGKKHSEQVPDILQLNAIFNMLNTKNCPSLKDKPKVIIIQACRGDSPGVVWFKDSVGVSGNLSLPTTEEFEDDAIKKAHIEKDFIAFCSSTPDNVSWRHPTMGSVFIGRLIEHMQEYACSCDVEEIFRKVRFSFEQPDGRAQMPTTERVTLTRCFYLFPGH
The test is described as follows: Inhibition of human recombinant DTT-activated caspase-1 expressed in Escherichia coli using WEHD-AMC as substrate after 30 mins by fluorescence assay. Particulars: read-out: Ki(app).
For the compound `C[C@]12C=CC(=O)C=C1CC[C@@H]1C2=CC[C@]2(C)[C@@H](C(=O)CN3CCN(c4cc(N5CCCC5)nc(N5CCCC5)n4)CC3)CC[C@@H]12`, the Ki was determined as 50 nM.

The target of the next test is T2, Caspase-4 (Homo sapiens, UniProt P49662).
T2 sequence (P49662 whole entry): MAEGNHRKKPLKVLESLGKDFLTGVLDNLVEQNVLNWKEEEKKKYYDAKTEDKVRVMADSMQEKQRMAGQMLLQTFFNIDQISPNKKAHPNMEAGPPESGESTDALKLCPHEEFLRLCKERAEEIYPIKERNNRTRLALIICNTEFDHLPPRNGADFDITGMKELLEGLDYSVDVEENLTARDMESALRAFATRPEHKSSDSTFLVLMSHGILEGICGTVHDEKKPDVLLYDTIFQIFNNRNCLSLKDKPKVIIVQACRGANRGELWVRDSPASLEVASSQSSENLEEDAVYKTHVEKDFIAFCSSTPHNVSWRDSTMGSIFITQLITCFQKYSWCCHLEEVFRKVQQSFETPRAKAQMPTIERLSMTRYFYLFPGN
Briefly: Inhibition of human recombinant N-terminal His-tagged DTT-activated caspase-4 expressed in Escherichia coli using Ac-LEVD-AMC as substrate preincubated for 30 mins followed by substrate addition by fluorescence assay.
Details: not given
For orientation: IC50 means the concentration at which inhibition is half-maximal. As to `C[C@]12C=CC(=O)C=C1CC[C@@H]1C2=CC[C@]2(C)[C@@H](C(=O)CN3CCN(c4cc(N5CCCC5)nc(N5CCCC5)n4)CC3)CC[C@@H]12`, the half-maximal inhibitory concentration (IC50) is 909 nM and the Ki came out at 337 nM.
The matching figures for `c1cncc(CN2CCN(c3cc(N4CCCC4)nc(N4CCCC4)n3)CC2)c1`: 2350 nM and 870 nM.
Turning to `FC(F)(F)c1cc(CN2CCN(c3cc(N4CCCC4)nc(N4CCCC4)n3)CC2)cc(C(F)(F)F)c1`, the IC50 was above 5000 nM.
For the compound `O=[N+]([O-])c1ccccc1CN1CCN(c2cc(N3CCCC3)nc(N3CCCC3)n2)CC1`, the 50% inhibitory concentration (IC50) turned out to be 721 nM and the Ki stood at 267 nM.
The corresponding values for `c1c(N2CCCC2)nc(N2CCCC2)nc1N1CCNCC1` are 560 nM and 207 nM.
As for `c1ccc(CN2CCN(c3cc(N4CCCC4)nc(N4CCCC4)n3)CC2)cc1`, the IC50 is above 5000 nM.
As for `COc1cccc(CN2CCN(c3cc(N4CCCC4)nc(N4CCCC4)n3)CC2)c1`, the IC50 turned out to be 746 nM and the Ki was found to be 276 nM.
The matching figures for `COc1cc(CN2CCN(c3cc(N4CCCC4)nc(N4CCCC4)n3)CC2)cc(OC)c1`: 400 nM and 148 nM.
The matching figures for `c1ccc(CCN2CCN(c3cc(N4CCCC4)nc(N4CCCC4)n3)CC2)cc1`: 21 nM and 8 nM.
The matching figures for `c1cc(CN2CCN(c3cc(N4CCCC4)nc(N4CCCC4)n3)CC2)ccn1`: 1060 nM and 393 nM.
For the compound `FC(F)(F)c1ccc(CN2CCN(c3cc(N4CCCC4)nc(N4CCCC4)n3)CC2)cc1`, the half-maximal inhibitory concentration (IC50) stood at 1520 nM and the Ki is 563 nM.
The corresponding values for `O=C(c1ccccc1)c1ccc(CN2CCN(c3cc(N4CCCC4)nc(N4CCCC4)n3)CC2)cc1` are 320 nM and 119 nM.
The matching figures for `c1c(N2CCCC2)nc(N2CCCC2)nc1N1CCN(CC2CCCCC2)CC1`: 826 nM and 306 nM.
Regarding `O=[N+]([O-])c1ccc(CN2CCN(c3cc(N4CCCC4)nc(N4CCCC4)n3)CC2)cc1`, the IC50 came to 580 nM and the Ki was found to be 215 nM.

A further test deals with T3, Caspase-5 (Homo sapiens, UniProt P51878).
T3 sequence (P51878 whole entry): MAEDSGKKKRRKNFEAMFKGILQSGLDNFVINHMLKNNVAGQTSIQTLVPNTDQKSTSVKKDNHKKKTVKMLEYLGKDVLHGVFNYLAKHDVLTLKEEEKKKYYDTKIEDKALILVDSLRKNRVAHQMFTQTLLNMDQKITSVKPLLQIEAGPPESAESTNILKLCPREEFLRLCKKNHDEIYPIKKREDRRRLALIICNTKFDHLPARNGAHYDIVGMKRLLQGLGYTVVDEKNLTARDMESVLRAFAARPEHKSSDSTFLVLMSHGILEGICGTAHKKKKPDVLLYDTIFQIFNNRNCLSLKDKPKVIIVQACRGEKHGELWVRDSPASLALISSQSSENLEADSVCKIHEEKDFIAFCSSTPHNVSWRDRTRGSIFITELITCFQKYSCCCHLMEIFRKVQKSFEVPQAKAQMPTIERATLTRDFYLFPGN
Briefly: Inhibition of human recombinant DTT-activated caspase-5 expressed in Escherichia coli using Ac-WEHD-AMC as substrate preincubated for 30 mins followed by substrate addition by fluorescence assay.
Details: not given
For the compound `C[C@]12C=CC(=O)C=C1CC[C@@H]1C2=CC[C@]2(C)[C@@H](C(=O)CN3CCN(c4cc(N5CCCC5)nc(N5CCCC5)n4)CC3)CC[C@@H]12`, the IC50 was 910 nM and the Ki amounted to 210 nM.
The corresponding values for `c1cncc(CN2CCN(c3cc(N4CCCC4)nc(N4CCCC4)n3)CC2)c1` are 254 nM and 59 nM.
As for `FC(F)(F)c1cc(CN2CCN(c3cc(N4CCCC4)nc(N4CCCC4)n3)CC2)cc(C(F)(F)F)c1`, the concentration for half-maximal inhibition (IC50) was 210 nM and the Ki was 48 nM.
The matching figures for `O=[N+]([O-])c1ccccc1CN1CCN(c2cc(N3CCCC3)nc(N3CCCC3)n2)CC1`: 105 nM and 24 nM.
The matching figures for `c1c(N2CCCC2)nc(N2CCCC2)nc1N1CCNCC1`: 205 nM and 47 nM.
The corresponding values for `c1ccc(CN2CCN(c3cc(N4CCCC4)nc(N4CCCC4)n3)CC2)cc1` are 178 nM and 41 nM.
`COc1cccc(CN2CCN(c3cc(N4CCCC4)nc(N4CCCC4)n3)CC2)c1`: the IC50 amounted to 482 nM and the Ki stood at 111 nM.
With `COc1cc(CN2CCN(c3cc(N4CCCC4)nc(N4CCCC4)n3)CC2)cc(OC)c1`, the IC50 worked out at 149 nM and the Ki came to 34 nM.
The corresponding values for `c1ccc(CCN2CCN(c3cc(N4CCCC4)nc(N4CCCC4)n3)CC2)cc1` are 71 nM and 16 nM.
The matching figures for `c1cc(CN2CCN(c3cc(N4CCCC4)nc(N4CCCC4)n3)CC2)ccn1`: 146 nM and 34 nM.
The matching figures for `FC(F)(F)c1ccc(CN2CCN(c3cc(N4CCCC4)nc(N4CCCC4)n3)CC2)cc1`: 586 nM and 135 nM.
`O=C(c1ccccc1)c1ccc(CN2CCN(c3cc(N4CCCC4)nc(N4CCCC4)n3)CC2)cc1`: the IC50 is 123 nM and the Ki was found to be 28 nM.
The corresponding values for `c1c(N2CCCC2)nc(N2CCCC2)nc1N1CCN(CC2CCCCC2)CC1` are 254 nM and 59 nM.
The corresponding values for `O=[N+]([O-])c1ccc(CN2CCN(c3cc(N4CCCC4)nc(N4CCCC4)n3)CC2)cc1` are 430 nM and 99 nM.

The target in another test is T1, Caspase-1. The test is described as follows: Inhibition of human recombinant N-terminal His-tagged DTT-activated caspase-1 expressed in Escherichia coli using Ac-WEHD-AMC as substrate preincubated for 30 mins followed by substrate addition by fluorescence assay.
Details: not given
Take `C[C@]12C=CC(=O)C=C1CC[C@@H]1C2=CC[C@]2(C)[C@@H](C(=O)CN3CCN(c4cc(N5CCCC5)nc(N5CCCC5)n4)CC3)CC[C@@H]12`: the Ki amounted to 50 nM.
`c1cncc(CN2CCN(c3cc(N4CCCC4)nc(N4CCCC4)n3)CC2)c1`: the IC50 worked out at 1870 nM and the Ki amounted to 534 nM.
The matching figures for `FC(F)(F)c1cc(CN2CCN(c3cc(N4CCCC4)nc(N4CCCC4)n3)CC2)cc(C(F)(F)F)c1`: 706 nM and 202 nM.
The corresponding values for `O=[N+]([O-])c1ccccc1CN1CCN(c2cc(N3CCCC3)nc(N3CCCC3)n2)CC1` are 796 nM and 227 nM.
As to `c1c(N2CCCC2)nc(N2CCCC2)nc1N1CCNCC1`, the 50% inhibitory concentration (IC50) was 455 nM and the Ki was 130 nM.
The corresponding values for `c1ccc(CN2CCN(c3cc(N4CCCC4)nc(N4CCCC4)n3)CC2)cc1` are 700 nM and 200 nM.
The corresponding values for `COc1cccc(CN2CCN(c3cc(N4CCCC4)nc(N4CCCC4)n3)CC2)c1` are 262 nM and 75 nM.
The matching figures for `COc1cc(CN2CCN(c3cc(N4CCCC4)nc(N4CCCC4)n3)CC2)cc(OC)c1`: 173 nM and 49 nM.
Consider `c1ccc(CCN2CCN(c3cc(N4CCCC4)nc(N4CCCC4)n3)CC2)cc1`, for which the 50% inhibitory concentration (IC50) is 56 nM and the Ki was 16 nM.
For `c1cc(CN2CCN(c3cc(N4CCCC4)nc(N4CCCC4)n3)CC2)ccn1`, the IC50 came out at 1060 nM and the Ki worked out at 303 nM.
The corresponding values for `FC(F)(F)c1ccc(CN2CCN(c3cc(N4CCCC4)nc(N4CCCC4)n3)CC2)cc1` are 639 nM and 183 nM.
The corresponding values for `O=C(c1ccccc1)c1ccc(CN2CCN(c3cc(N4CCCC4)nc(N4CCCC4)n3)CC2)cc1` are 205 nM and 59 nM.
The corresponding values for `c1c(N2CCCC2)nc(N2CCCC2)nc1N1CCN(CC2CCCCC2)CC1` are 95 nM and 27 nM.
Consider `O=[N+]([O-])c1ccc(CN2CCN(c3cc(N4CCCC4)nc(N4CCCC4)n3)CC2)cc1`, for which the IC50 amounted to 450 nM and the Ki was 129 nM.

The next test has as its target T3, Caspase-5. The test is described as follows: Inhibition of human recombinant DTT-activated caspase-5 expressed in Escherichia coli using Ac-WEHD-AMC as substrate preincubated for 15 mins followed by substrate addition by fluorescence assay.
Details: not given
`c1cncc(CN2CCN(c3cc(N4CCCC4)nc(N4CCCC4)n3)CC2)c1`: the 50% inhibitory concentration (IC50) stood at 2560 nM.

For a further test, the target named is T3, Caspase-5. The test is described as follows: Inhibition of human recombinant DTT-activated caspase-5 expressed in Escherichia coli using Ac-WEHD-AMC as substrate preincubated for 45 mins followed by substrate addition by fluorescence assay.
Details: not given
`c1cncc(CN2CCN(c3cc(N4CCCC4)nc(N4CCCC4)n3)CC2)c1`: the IC50 is 155 nM.
